Test results: patent US11174268B2, “Benzenesulfonamide compouds and their use as therapeutic agents” (Xenon Pharmaceuticals Inc., priority 2016, dated 2021)

Key:
NaV1.6 = NaV1.6 (Homo sapiens (Human), UniProt Q9UQD0); assay: Sodium Influx Assay (Flux), NaV1.6; assay type: cell-based; settings: Trex HEK293 cells, ANG2 dye, inactivated state;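 note: Tetracycline-induced cells, compounds applied for one hour at room temperature with modulators holding channels open, IC50 from percent inhibition of sodium influx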
NaV1.1 = NaV1.1 (Homo sapiens (Human), UniProt P35498); assay: Sodium Influx Assay (Flux), NaV1.1; assay type: cell-based; settings: Trex HEK293 cells, ANG2 dye, inactivated state;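 note: channels co-expressed with human β1 subunit and held open by modulators, cells exposed to compounds for one hour at room temperature, IC50 from percent inhibition of influx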
NaV1.5 = NaV1.5 (Homo sapiens (Human), UniProt Q14524); assay: Sodium Influx Assay (Flux), NaV1.5; settings: read-out: Flux NaV1.5 IC50; Trex HEK293 cells, ANG2 dye, inactivated state
NaV1.5, sequence (Q14524 other isoform, or with tags, fused parts or gaps): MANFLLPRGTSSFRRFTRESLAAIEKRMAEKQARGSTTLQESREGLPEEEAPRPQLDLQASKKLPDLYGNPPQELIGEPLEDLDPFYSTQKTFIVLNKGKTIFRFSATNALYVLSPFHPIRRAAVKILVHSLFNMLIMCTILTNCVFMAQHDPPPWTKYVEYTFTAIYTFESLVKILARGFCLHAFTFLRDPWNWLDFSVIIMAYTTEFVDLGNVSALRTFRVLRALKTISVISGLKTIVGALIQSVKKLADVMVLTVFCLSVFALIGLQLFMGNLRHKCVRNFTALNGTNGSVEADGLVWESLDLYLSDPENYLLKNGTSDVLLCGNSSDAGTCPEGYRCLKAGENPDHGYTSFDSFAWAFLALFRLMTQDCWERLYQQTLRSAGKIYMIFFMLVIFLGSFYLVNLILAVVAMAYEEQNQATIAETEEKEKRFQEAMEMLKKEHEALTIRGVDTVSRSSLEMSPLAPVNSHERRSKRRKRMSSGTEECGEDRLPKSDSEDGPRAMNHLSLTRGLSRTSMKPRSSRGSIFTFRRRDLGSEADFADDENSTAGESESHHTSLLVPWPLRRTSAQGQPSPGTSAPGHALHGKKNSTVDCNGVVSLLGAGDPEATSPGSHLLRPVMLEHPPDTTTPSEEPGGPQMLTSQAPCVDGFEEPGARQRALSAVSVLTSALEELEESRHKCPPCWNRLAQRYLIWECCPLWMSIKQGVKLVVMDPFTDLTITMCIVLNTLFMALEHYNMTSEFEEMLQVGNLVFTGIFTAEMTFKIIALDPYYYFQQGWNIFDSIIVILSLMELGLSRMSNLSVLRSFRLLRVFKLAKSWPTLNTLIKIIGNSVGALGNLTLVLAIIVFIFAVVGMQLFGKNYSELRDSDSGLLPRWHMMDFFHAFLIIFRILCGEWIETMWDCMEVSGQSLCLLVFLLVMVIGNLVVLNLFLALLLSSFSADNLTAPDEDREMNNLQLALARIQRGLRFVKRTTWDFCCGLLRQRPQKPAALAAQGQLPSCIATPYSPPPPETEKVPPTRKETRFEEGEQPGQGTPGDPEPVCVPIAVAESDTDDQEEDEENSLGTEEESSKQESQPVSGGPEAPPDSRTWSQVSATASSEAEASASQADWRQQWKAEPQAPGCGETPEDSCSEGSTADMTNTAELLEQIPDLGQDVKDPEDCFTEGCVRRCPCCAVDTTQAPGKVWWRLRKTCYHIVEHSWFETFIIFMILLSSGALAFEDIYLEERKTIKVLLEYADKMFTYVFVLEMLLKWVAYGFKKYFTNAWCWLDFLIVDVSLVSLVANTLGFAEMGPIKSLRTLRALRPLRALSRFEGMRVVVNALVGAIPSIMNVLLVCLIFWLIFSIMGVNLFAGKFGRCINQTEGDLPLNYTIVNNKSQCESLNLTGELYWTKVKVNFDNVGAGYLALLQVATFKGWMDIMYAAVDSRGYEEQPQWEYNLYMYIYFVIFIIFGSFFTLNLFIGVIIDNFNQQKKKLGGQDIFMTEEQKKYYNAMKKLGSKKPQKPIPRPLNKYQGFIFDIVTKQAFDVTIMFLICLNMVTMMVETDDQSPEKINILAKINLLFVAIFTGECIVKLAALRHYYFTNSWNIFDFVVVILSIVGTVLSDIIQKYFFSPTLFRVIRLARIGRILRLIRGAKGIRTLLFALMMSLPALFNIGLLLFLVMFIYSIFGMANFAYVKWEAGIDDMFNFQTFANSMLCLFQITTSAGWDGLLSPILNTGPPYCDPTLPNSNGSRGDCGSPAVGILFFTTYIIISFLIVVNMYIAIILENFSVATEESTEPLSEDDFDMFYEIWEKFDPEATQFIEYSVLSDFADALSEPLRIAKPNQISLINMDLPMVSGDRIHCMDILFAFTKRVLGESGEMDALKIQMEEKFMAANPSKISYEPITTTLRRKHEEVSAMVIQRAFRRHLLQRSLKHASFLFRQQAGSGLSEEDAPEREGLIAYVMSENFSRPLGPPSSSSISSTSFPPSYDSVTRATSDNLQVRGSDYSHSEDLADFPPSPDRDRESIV

| Structure (SMILES) | IC50 (NaV1.6) | IC50 (NaV1.1) | IC50 (NaV1.5) |
| --- | --- | --- | --- |
| C[C@H](Nc1cc(F)c(S(=O)(=O)Nc2nccs2)cc1Cl)c1cccc(Br)c1 [Example 7, (S)-4-((1-(3-bromophenyl)ethyl)amino)-5-chloro-2-fluoro-N-(thiazol-2-yl)benzenesulfonamide] | 0.376 µM | 3 µM | 9.68 µM |
| C[C@H](Nc1cc(F)c(S(=O)(=O)Nc2nccs2)cc1Cl)c1ccc(Cl)cc1 [Example 14, (S)-5-chloro-4-((1-(4-chlorophenyl)ethyl)amino)-2-fluoro-N-(thiazol-2-yl)benzenesulfonamide] | 1.79 µM | 4.65 µM | 14.4 µM |
| C[C@H](Nc1cc(F)c(S(=O)(=O)Nc2nccs2)cc1Cl)c1ccc2ccccc2c1 [Example 15, (S)-5-chloro-2-fluoro-4-((1-(naphthalen-2-yl)ethyl)amino)-N-(thiazol-2-yl)benzenesulfonamide] | 7.15 µM | 9.41 µM | 23.6 µM |
| N#Cc1ccccc1CNc1cc(F)c(S(=O)(=O)Nc2nccs2)cc1Cl [Example 17, 5-chloro-4-((2-cyanobenzyl)amino)-2-fluoro-N-(thiazol-2-yl)benzenesulfonamide] | 0.308 µM | 0.494 µM | 8.46 µM |
| O=S(=O)(Nc1cscn1)c1cc(Cl)c(NC2(c3ccccc3)CCC2)cc1F [Example 18, 5-chloro-2-fluoro-4-((1-phenylcyclobutyl)amino)-N-(thiazol-4-yl)benzenesulfonamide] | 3.35 µM | 8.37 µM | 11.9 µM |
| C[C@H](Nc1c(Cl)cc(S(=O)(=O)Nc2nccs2)cc1Cl)c1ccccc1F [Example 21, (S)-3,5-dichloro-4-((1-(2-fluorophenyl)ethyl)amino)-N-(thiazol-2-yl)benzenesulfonamide] | 3.67 µM | 3.63 µM | 2.89 µM |
| C[C@H](Nc1cc(F)c(S(=O)(=O)Nc2cccc(F)n2)cc1Cl)c1ccccc1Cl [Example 23, (S)-5-chloro-4-((1-(2-chlorophenyl)ethyl)amino)-2-fluoro-N-(6-fluoropyridin-2-yl)benzenesulfonamide] | 1.52 µM | 5.4 µM | 4.09 µM |
| C[C@H](Nc1ccc(S(=O)(=O)Nc2cscn2)cc1Cl)c1ccccc1 [Example 24, (S)-3-chloro-4-((1-phenylethyl)amino)-N-(thiazol-4-yl)benzenesulfonamide] | 4.09 µM | 5.85 µM | 8.32 µM |
| O=S(=O)(Nc1cscn1)c1cc(Cl)c(OC2CCc3c2cccc3C(F)(F)F)cc1F (stereo not drawn) [Example 29, 5-chloro-2-fluoro-N-(thiazol-4-yl)-4-((4-(trifluoromethyl)-2,3-dihydro-1H-inden-1-yl)oxy)benzenesulfonamide] | 30 µM | 30 µM | 24.6 µM |
| O=S(=O)(Nc1ncns1)c1ccc(NCc2ccccc2)c(Cl)c1 [Example 33, 4-(Benzylamino)-3-chloro-N-(1,2,4-thiadiazol-5-yl)benzenesulfonamide] | 0.462 µM | 2.99 µM | 25.8 µM |
| CC(CNc1ccc(S(=O)(=O)Nc2ncns2)cc1Cl)c1ccccc1 (stereo not drawn) [Example 34, 3-chloro-4-((2-phenylpropyl)amino)-N-(1,2,4-thiadiazol-5-yl)benzenesulfonamide] | 1.27 µM | 0.84 µM | 4.91 µM |
| O=S(=O)(Nc1ncns1)c1ccc(N[C@@H]2CCc3ccccc32)c(Cl)c1 [Example 35, (R)-3-chloro-4-((2,3-dihydro-1H-inden-1-yl)amino)-N-(1,2,4-thiadiazol-5-yl)benzenesulfonamide] | 0.839 µM | 0.301 µM | 8.69 µM |
| O=S(=O)(Nc1ncns1)c1ccc(N[C@H]2CCc3ccccc32)c(Cl)c1 [Example 36, (S)-3-chloro-4-((2,3-dihydro-1H-inden-1-yl)amino)-N-(1,2,4-thiadiazol-5-yl)benzenesulfonamide] | 1.4 µM | 1.34 µM | 5.12 µM |
| O=S(=O)(Nc1nccs1)c1cc(Cl)c(N[C@H]2CCCc3ccccc32)cc1F [Example 46, (S)-5-chloro-2-fluoro-4-((1,2,3,4-tetrahydronaphthalen-1-yl)amino)-N-(thiazol-2-yl)benzenesulfonamide] | 1.66 µM | 0.999 µM | 7.04 µM |
| C[C@H](Nc1cc(F)c(S(=O)(=O)Nc2nccs2)cc1Cl)c1cccc(Cl)c1 [Example 50, (S)-5-chloro-4-((1-(3-chlorophenyl)ethyl)amino)-2-fluoro-N-(thiazol-2-yl)benzenesulfonamide] | 0.169 µM | 1.28 µM | 6.07 µM |
| C[C@H](Nc1cc(F)c(S(=O)(=O)Nc2nccs2)cc1Cl)c1cc(Cl)cc(Cl)c1 [Example 51, (S)-5-chloro-4-((1-(3,5-dichlorophenyl)ethyl)amino)-2-fluoro-N-(thiazol-2-yl)benzenesulfonamide] | 10.8 µM | 4.27 µM | 20.6 µM |

| Structure (SMILES) | IC50 (NaV1.6) | IC50 (NaV1.1) | IC50 (NaV1.5) |
| --- | --- | --- | --- |
| C[C@H](Nc1cc(F)c(S(=O)(=O)Nc2nccs2)cc1Cl)c1ccc(F)c(F)c1 [Example 53, (S)-5-chloro-4-((1-(3,4-difluorophenyl)ethyl)amino)-2-fluoro-N-(thiazol-2-yl)benzenesulfonamide] | 0.741 µM | 0.726 µM | 6.89 µM |
| CCC(Nc1cc(F)c(S(=O)(=O)Nc2nccs2)cc1Cl)c1ccc2c(c1)CCCC2 (stereo not drawn) [Example 55, 5-chloro-2-fluoro-4-((1-(5,6,7,8-tetrahydronaphthalen-2-yl)propyl)amino)-N-(thiazol-2-yl)benzenesulfonamide] | 20.7 µM | 16.1 µM | 21.3 µM |
| CCC(Nc1cc(F)c(S(=O)(=O)Nc2nccs2)cc1Cl)c1cccnc1 (stereo not drawn) [Example 58, 5-chloro-2-fluoro-4-((1-(pyridin-3-yl)propyl)amino)-N-(thiazol-2-yl)benzenesulfonamide] | 0.152 µM | 2.53 µM | 7.09 µM |
| CCC(Nc1cc(F)c(S(=O)(=O)Nc2nccs2)cc1Cl)c1ccncc1 (stereo not drawn) [Example 60, 5-chloro-2-fluoro-4-((1-(pyridin-4-yl)propyl)amino)-N-(thiazol-2-yl)benzenesulfonamide] | 3.34 µM | 1.57 µM | 30 µM |
| O=S(=O)(Nc1nccs1)c1cc(Cl)c(N[C@H](CN2CC(F)C2)c2ccccc2)cc1F [Example 68, (S)-5-chloro-4-((2-(3-fluoroazetidin-1-yl)-1-phenylethyl)amino)-2-fluoro-N-(thiazol-2-yl)benzenesulfonamide 2,2,2-trifluoroacetate] | 1.81 µM | 5.15 µM | 25.3 µM |
| O=S(=O)(Nc1nccs1)c1cc(Cl)c(N[C@H](CN2CC(F)(F)C2)c2ccccc2)cc1F [Example 69, (S)-5-chloro-4-((2-(3,3-difluoroazetidin-1-yl)-1-phenylethyl)amino)-2-fluoro-N-(thiazol-2-yl)benzenesulfonamide] | 1.59 µM | 3.03 µM | 7.66 µM |
| O=S(=O)(Nc1nccs1)c1cc(Cl)c(N[C@@H](CN2CCCC2)c2ccccc2)cc1F [Example 71, (R)-5-chloro-2-fluoro-4-((1-phenyl-2-(pyrrolidin-1-yl)ethyl)amino)-N-(thiazol-2-yl)benzenesulfonamide] | 30 µM | 30 µM | 30 µM |
| O=S(=O)(Nc1nccs1)c1cc(Cl)c(N[C@H](CN2CCOCC2)c2ccccc2)cc1F [Example 75, (S)-5-chloro-2-fluoro-4-((2-morpholino-1-phenylethyl)amino)-N-(thiazol-2-yl)benzenesulfonamide 2,2,2-trifluoroacetate] | 0.261 µM | 13.6 µM | 21.7 µM |
| O=S(=O)(Nc1nccs1)c1ccc(N[C@H]2CCCc3cccnc32)c(Cl)c1 [Example 77, (S)-3-chloro-4-((5,6,7,8-tetrahydroquinolin-8-yl)amino)-N-(thiazol-2-yl)benzenesulfonamide] | 8.08 µM | 7.98 µM | 26.1 µM |
| C[C@H](Nc1ccc(S(=O)(=O)Nc2nccs2)cc1Cl)c1ccccn1 [Example 82, (S)-3-chloro-4-((1-(pyridin-2-yl)ethyl)amino)-N-(thiazol-2-yl)benzenesulfonamide] | 2.16 µM | 28.7 µM | 30 µM |
| CC(Nc1ccc(S(=O)(=O)Nc2nccs2)cc1Cl)c1cnn(C)c1 (stereo not drawn) [Example 83, 3-chloro-4-((1-(1-methyl-1H-pyrazol-4-yl)ethyl)amino)-N-(thiazol-2-yl)benzenesulfonamide] | 12.3 µM | 11 µM | 30 µM |
| C[C@H](Nc1cc(F)c(S(=O)(=O)Nc2cscn2)cc1Cl)c1ccccc1Cl [Example 92, (S)-5-chloro-4-((1-(2-chlorophenyl)ethyl)amino)-2-fluoro-N-(thiazol-4-yl)benzenesulfonamide] | 2.53 µM | 7.45 µM | 4.43 µM |
| O=S(=O)(Nc1nccs1)c1cc(Cl)c(NC2CCCc3ccncc32)cc1F (stereo not drawn) [Example 93, 5-chloro-2-fluoro-4-((5,6,7,8-tetrahydroisoquinolin-8-yl)amino)-N-(thiazol-2-yl)benzenesulfonamide 2,2,2-trifluoroacetate] | 0.27 µM | 0.314 µM | 8.47 µM |
| O=S(=O)(Nc1nccs1)c1cc(Cl)c(NC2CCCc3cnccc32)cc1F (stereo not drawn) [Example 94, 5-chloro-2-fluoro-4-((5,6,7,8-tetrahydroisoquinolin-5-yl)amino)-N-(thiazol-2-yl)benzenesulfonamide 2,2,2-trifluoroacetate] | 0.423 µM | 0.142 µM | 8.62 µM |
| C[C@H](Oc1cc(F)c(S(=O)(=O)Nc2nccs2)cc1Cl)c1cc(Cl)ccc1F [Example 95, (S)-5-chloro-4-(1-(5-chloro-2-fluorophenyl)ethoxy)-2-fluoro-N-(thiazol-2-yl)benzenesulfonamide] | 0.761 µM | 8.11 µM | 30 µM |
